One compound from patent publication US20240245677A1, “SELECTED COMPOUNDS FOR TARGETED DEGRADATION OF BRD9” (C4 THERAPEUTICS, INC., priority 2021, published 2024) can be followed below.

SMILES strings stand for the structures.

One data set can be described thus: in vitro. The conditions noted are these: plasma; for % Bound / % Remaining at 3 hours: 3 h, 2 µM. Here is the method: Plasma protein binding (PPB) of Compound 1 was evaluated in plasma from mice, rats, dogs, cynomolgus monkeys, and humans using ultracentrifugation.
Frozen plasma from CD-1 mice, Sprague-Dawley rats, beagle dogs, cynomolgus monkeys, and humans was purchased and stored at ≤−30° C. On the day of study, plasma samples of CD-1 mice, Sprague-Dawley rats, beagle dogs, cynomolgus monkeys and humans were thawed under running cold tap water and centrifuged to remove any particulates.
For the internal standard, telmisartan, a 1 mg/mL solution was prepared by dissolving 1.4 mg of telmisartan in 1.4 mL of DMSO, and stored at 4° C.
The 10 mM stock solution of each test compound was used to prepare 400 μM intermediate stocks in methanol. Then, a 2 μM working stock of each test compound was prepared for plasma from each species (mouse, rat, dog, monkey, and human) by spiking 12 μL of the 400 μM intermediate stock for each test compound into 2400 μL of thawed and prepared plasma from a test species.
400 μL of blank plasma for each species was transferred to a 0.5 mL Beckman tube (Part No. 343776, Beckman Coulter Life Sciences, Indianapolis, IN, USA) and centrifuged for 3 hours at 627000×g at 37° C. The supernatant was removed and kept at room temperature.
To prepare for ultracentrifugation, the rotor of the centrifuge was placed into an incubator and warmed up to 37° C. before centrifugation. The vacuum switch of the OPTIMA™ MAX-TL Ultracentrifuge (Beckman Coulter Life Sciences, Indianapolis, IN, USA) was turned on and the vacuum was reduced to less than 10 microns to warm up the system. The ultracentrifuge's parameters were set to the following: Temperature—37° C.; Time—3 hours; and Speed—627000×g. For each species and each test compound, 2.4 mL of working stock was mixed and pre-incubated for 45 minutes at 37° C. Then, 60 μL was separated and precipitated with 200 μL of acetonitrile containing internal standard and labeled as (TO), and 0.4 mL (triplicates) were transferred to Beckman 2 mL tubes (Part No. 344625, Beckman Coulter Life Sciences, Indiana, IN, USA).
For each species and each test compound, the triplicate 0.4 mL sample tubes were centrifuged for 3 hours at 627000×g at 37° C. […] At 45 minutes, 60 μL was separated, precipitated with 200 μL of acetonitrile containing internal standard and labelled as (T45). After completion of 3 hours, 60 μL of incubated samples were separated, precipitated with acetonitrile containing internal standard, and labeled as (T3).
After completing the 3 hours of centrifugation, 30 μl of the top fraction of supernatant from each sample tube was removed (free fraction) and precipitated with acetonitrile containing internal standard (labeled as top sample).
After removing 30 μL of the top fraction, remaining top and bottom layer were mixed thoroughly to make a uniform mixture. From this mixture, 30 μL of bottom sample was collected and precipitated with acetonitrile containing internal standard (labelled as bottom sample).
Matrix matching was done for crashed stability samples (TO, T45 and T3 samples) by adding 30 μL of a 50:50 mixture of blank plasma supernatant and phosphate-buffered saline (PBS), and for top and bottom samples, by adding 30 μL of blank plasma (kept at room temperature).
All the stability samples and centrifuged samples were vortexed at 1000 rpm for 5 minutes and centrifuged at 4000 rpm for 10 minutes. Supernatant from each sample was separated, diluted 2-fold with water, and analyzed in LC-MS/MS.
Samples (supernatant-free fraction and total plasma) were analyzed by LCMS-MS (no standards).

Data set [1] in a line: Mouse Hepatocyte Stability Assay. It is filed as in vitro ADME. The conditions noted are these: CD-1, cryopreserved hepatocytes. The method, then:
(§1) The metabolic stability of Compound 1 was evaluated using cryopreserved hepatocytes from mice, rats, dogs, cynomolgus monkeys, and humans.
(§2) 50 μL of 1 mM intermediate solutions for each test compound was prepared by adding 5 μL of 10 mM stock solution to 45 μL of a 1:1 mixture of water and acetonitrile. A 2 μM working stocks for each test compound were prepared in incubation media, InvitroGRO™ KHB (Bio IVT, Westbury, NY, USA), by adding 2 μL of 1 mM intermediate stock to 998 μL of incubation media.
(§3) To thaw the hepatocytes, InvitroGRO™ HT thawing medium (BioIVT, Westbury, NY, USA) was prewarmed to 37° C., and 48 mL of warmed thawing medium was transferred to a sterile 50 mL conical tube. The hepatocyte vial was removed from the liquid nitrogen Dewar, and gently thawed in a water bath at 37° C. for 1-2 minutes, then the contents of the vial were emptied into a conical tube with prewarmed InvitroGRO HT medium. 1 mL of prewarmed InvitroGRO HT medium was added to each emptied hepatocyte vial to resuspend any remaining cells, and the contents were pipetted into the hepatocyte suspension. The tube containing the hepatocyte suspension was centrifuged at 50*g for 5 minutes. The supernatant was removed carefully, and the remaining pellet was resuspended by adding 1 mL of incubation media, InvitroGRO KHB, and gently shaking until there were no clumps.
(§4) Cell viability was determined using the trypan blue method. 25 μL of hepatocyte cell suspension was added to a trypan blue (TB) solution (containing 775 μL InvitroGRO KHB and 200 μL of Trypan Blue). Cell count was taken using a hemacytometer.
(§5) For mouse hepatocytes, 200 μL of hepatocytes (0.8×10^6 cells/mL) were added to the wells of a 48 well plate (Catalog No. 92048, TPP Techno Plastic Products AG, Trasadingen, Switzerland) and pre-incubated for 30 minutes at 37° C. For rat, dog, monkey, […], 200 μL of hepatocytes (2×10^6 cells/mL) were added to the wells of a 48 well plate (Catalog No. 92048, TPP Techno Plastic Products AG, Trasadingen, Switzerland) and pre-incubated for 30 minutes at 37° C.
(§6) For all species of hepatocytes, once the pre-incubation period was complete, 200 μL of 2 μM working stock of test compound was added to the wells of the plate, and the plate was vortexed on a Vibramax™ 100 (P/N 544-21200-00, Heidolph Instruments GmbH & Co. KG, Schwabach, Germany) at 500 rpm in a 37° C. CO2 incubator (Model No. 51026280, ThermoFisher Scientific, Waltham, MA, USA). At each time point of 0, 15, 30, 60, 90, and 120 minutes, 50 μL of incubation mixture was precipitated with 200 μL of acetonitrile containing internal standard.
(§7) At the end of the experiment, the samples were centrifuged at 4000 rpm for 10 minutes. The supernatant was collected and diluted with an equal amount of water, and vortexed for 5 minutes at 900 rpm in MixMate® (Model No. 5353, Eppendorf SE, Hamburg, Germany).
(§8) The supernatant samples were submitted for LC-MS/MS analysis.
(§9) Calculations of the results included the following: […]

Data set [2] has as its system cryopreserved hepatocytes from CD-1 mice. The data set is described as follows: Mouse Hepatocyte Stability Assay. It counts as in vitro ADME. Here is the method: as §1, §2, §3, §4, §5, §6, §7, §8, §9

On to `COc1cc(-c2cn(C)c(=O)c(C)c2C)cc(OC)c1CN1CC[C@H](N2CCN(c3ccc(N[C@H]4CCC(=O)NC4=O)cc3F)CC2)C(F)(F)C1` [Compound 1, (S)-3-((4-(4-((S)-1-(2,6-dimethoxy-4-(1,4,5-trimethyl-6-oxo-1,6-dihydropyridin-3-yl)benzyl)-3,3-difluoropiperidin-4-yl)piperazin-1-yl)-3-fluorophenyl)amino)-piperidine-2,6-dione], for which the fraction unbound at 3 h, 2 µM in the data set “in vitro” (CD-1, mouse) is 0.0339; in the data set “in vitro” (Sprague-Dawley, rat) it was 0.0971; in “in vitro” (beagle, dog), 0.0646; in “in vitro” (human), 0.067; in the data set “in vitro” (monkey), 0.0514. Also, the “% Bound” value worked out at 96.61% in “in vitro” (CD-1, mouse); 90.29% in the data set “in vitro” (Sprague-Dawley, rat); 93.54% in “in vitro” (beagle, dog); 94.86% in the data set “in vitro” (monkey). Also, the “% Remaining at 3 hours” value came out at 84.69% in “in vitro” (CD-1, mouse); 88.73% in the data set “in vitro” (Sprague-Dawley, rat); 99.38% in “in vitro” (beagle, dog); 66.87% in “in vitro” (human); 99.14% in “in vitro” (monkey). In data set [1], this compound gave a half-life at 1 µM above 120 min. Also, the hepatocyte CLint at 1 µM in data set [1] (read-out: CL int cells) was determined as 4.26 µL/min/1e6 cells. The “CLh int in vivo” value in data set [2] was determined as 44.94 mL/min/Kg body wt. Moreover, the “CLhb scaled well stirred” value in data set [2] worked out at 30.0 mL/min/kg body wt.
